Results taken from ChEMBL document CHEMBL5604063, “ASAP - DENV-2 NS2B-NS3 protease fluorescence dose response” (2024).
Several values for one entry are separate records, joined by “and”; a condition that tells them apart may be missing. Equal values may be shown once.

Experiments:
Genome polyprotein [1] = biological target: T1, Genome polyprotein (dengue virus type 2, UniProt P29990); format: functional, Thailand/16681/1984
Genome polyprotein [2] = biological target: T1, Genome polyprotein; format: functional, Thailand/16681/1984; remark: listed apart in the source

T1 sequence (P29990 1346-1475 limits assumed): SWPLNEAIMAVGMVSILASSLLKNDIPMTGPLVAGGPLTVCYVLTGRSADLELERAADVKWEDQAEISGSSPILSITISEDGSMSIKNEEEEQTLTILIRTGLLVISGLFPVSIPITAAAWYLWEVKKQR
T1 sequence (P29990 1476-2093 limits assumed): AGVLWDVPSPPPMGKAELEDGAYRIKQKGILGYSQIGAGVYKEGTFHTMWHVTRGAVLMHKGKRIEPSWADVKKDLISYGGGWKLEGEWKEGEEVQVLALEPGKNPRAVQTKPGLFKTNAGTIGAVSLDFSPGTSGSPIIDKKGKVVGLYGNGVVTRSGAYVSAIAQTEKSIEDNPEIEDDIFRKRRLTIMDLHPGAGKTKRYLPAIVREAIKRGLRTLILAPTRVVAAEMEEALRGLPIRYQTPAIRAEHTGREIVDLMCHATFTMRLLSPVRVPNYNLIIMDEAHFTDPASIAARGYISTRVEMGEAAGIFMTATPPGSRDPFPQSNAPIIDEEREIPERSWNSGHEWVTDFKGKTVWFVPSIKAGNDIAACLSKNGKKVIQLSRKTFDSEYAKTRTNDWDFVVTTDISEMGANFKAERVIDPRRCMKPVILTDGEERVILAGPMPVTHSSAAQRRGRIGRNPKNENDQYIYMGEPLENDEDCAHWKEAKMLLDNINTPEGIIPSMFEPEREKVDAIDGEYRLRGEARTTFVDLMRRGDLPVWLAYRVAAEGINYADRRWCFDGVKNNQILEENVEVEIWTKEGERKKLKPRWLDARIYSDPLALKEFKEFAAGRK

| Structure (SMILES) | IC50 (Genome polyprotein [1]) | IC50 (Genome polyprotein [2]) |
| --- | --- | --- |
| NCc1cccc(NC(=O)c2cc(Cl)cc3c2cnn3CC2CC2)c1 | > 100 µM | > 99.5 µM |
| Cc1cc(C(=O)Nc2cccc(CN)c2)c2cnn(-c3ccc(F)cc3)c2n1 | > 100 µM | > 99.5 µM |
| NCc1cccc(NC(=O)[C@H]2CCCN(C(=O)CC3CC3)C2)c1 | > 100 µM | > 99.5 µM |
| O=C(Nc1ccc2c(c1)CN[C@H]2C[C@H](O)CO)c1cc(F)cc2[nH]ncc12 | 23.2 µM and 22.1 µM | 40.1 µM |
| CC(C)n1cc2c(C(=O)Nc3ccc4c(c3)CNC4)cc(Cl)cc2n1 | > 100 µM | > 99.5 µM |
| N#Cc1csc(CN2CCC([C@H](NC(=O)OCc3ccccc3)C(=O)Nc3cccc(CN)c3)CC2)c1 | > 100 µM | > 99.5 µM |
| O=C(Nc1ccc2c(c1)CNC2)c1cc(F)cc(-c2ccncc2)c1 | > 100 µM | > 99.5 µM |
| CN(C)Cc1cccc(NC(=O)[C@H](NC(=O)OCc2ccccc2)c2ccc(OCc3ccccc3)cc2)c1 | > 100 µM | > 99.5 µM |
| CN1Cc2cc(NC(=O)c3cc(Cl)cc4[nH]ncc34)ccc2C1(C)C | > 100 µM | > 99.5 µM |
| Cc1c(C(=O)Nc2cccc(-c3nc(C4CC4)no3)c2)cc(C2CC2)n1C | > 100 µM | > 99.5 µM |
| Nc1nc2c(Br)cc(C(=O)Nc3ccc4c(c3)CNC4)cc2s1 | 51.9 µM and 37.3 µM | 28.2 µM |
| CC(C)(C)c1nc2c(C(=O)Nc3ccc4c(c3)CNC4)cc(Br)cc2[nH]1 | > 100 µM | 39 µM |
| O=C(O)c1cc2cc(-c3cc(Cl)cc4c3O[C@H](CO)C4)ccc2[nH]1 | > 100 µM | > 99.5 µM |
| Clc1cc(CNc2ncc3c(n2)CNC3)c2cn[nH]c2c1 | > 100 µM | > 99.5 µM |
| O=C(Nc1ccc2c(c1)CNC2)c1ccn[nH]1 | > 100 µM | > 99.5 µM |
| O=C(NCC(F)F)[C@H](Nc1ccc2c(c1)CNC2)c1cc(Br)cc2cn[nH]c12 | > 100 µM | > 99.5 µM |
| Cc1ccc(C(C)C)c(C(=O)Nc2ccc3c(c2)CNC3)c1 | > 100 µM | > 99.5 µM |
| NCc1cc(CCc2cc(Cl)cc(NC(=O)OCc3ccccc3)c2)cc(C(=O)O)c1 | > 100 µM | > 99.5 µM |
| O=C(Cn1ccnc(N2CC[C@H](CO)C2)c1=O)N[C@H]1CCOC1 | > 100 µM | > 99.5 µM |
| CC(C)c1ccc(Cl)cc1C(=O)Nc1ccc2c(c1)CNC2 | > 100 µM | > 99.5 µM |
| CNC(=O)[C@]1(Nc2ccc3c(c2)CNC3)C(=O)Nc2c(OC)cc(Br)cc21 | > 100 µM | > 99.5 µM |

| Structure (SMILES) | IC50 (Genome polyprotein [1]) | IC50 (Genome polyprotein [2]) |
| --- | --- | --- |
| C=CC[C@H]1NCc2cc(NC(=O)c3cc(F)cc4[nH]ncc34)ccc21 | 39 µM | 72.9 µM |
| O=C(Nc1cc(Cl)cc(C(=O)Nc2ccc([C@H]3CCNC3)cc2)c1)OCc1ccccc1 | 39.4 µM | 19.5 µM and 24.6 µM |
| CC(C)O[C@]1(C)C(=O)Nc2cc(F)cc(C(=O)Nc3ccc4c(c3)CNC4)c21 | > 100 µM | > 99.5 µM |
| CCc1cc(Cl)cc(C(=O)Nc2ccc3c(c2)CNC3)c1 | > 100 µM | > 99.5 µM |
| C[C@@]1(c2cccc(CN)c2)C[C@H]1c1cc(Cl)cc(NC(=O)OCc2ccccc2)c1 | > 100 µM | 17.5 µM |
| CCNC(=O)Nc1cc(Cl)cc(C(=O)O)c1 | > 100 µM | > 99.5 µM |
| O=C(Nc1cc(Cl)cc(S(=O)(=O)Nc2cccc(-n3nn[nH]c3=O)c2)c1)OCc1ccccc1 | 16.1 µM and 14.1 µM | 34.3 µM |
| NCCc1ccc(NC(=O)c2cc(Cl)cc(CN)c2)cc1 | > 100 µM | > 99.5 µM |
| Cc1oc(C2CC2)nc1C(=O)Nc1cc(CCCN)ccn1 | > 100 µM | > 99.5 µM |
| CCOC(=O)Nc1cc(Cl)cc(C(=O)Nc2cccc(CN)c2)c1 | > 100 µM | > 99.5 µM |
| Cn1nc(C(=O)Nc2cc([C@H]3CCOC3)ccn2)cc1C1CC1 | > 100 µM | > 99.5 µM |
| O=c1ccc(N2CCN(Cc3c[nH]c4ccccc34)CC2)c[nH]1 | > 100 µM | > 99.5 µM |
| Cc1[nH]c(-c2ccccc2)cc1C(=O)Nc1cc(-c2cccnc2)ccn1 | > 100 µM | > 99.5 µM |
| O=C(Nc1cccc2c1CNC2)c1cc(Cl)cc2[nH]ncc12 | > 100 µM | > 99.5 µM |
| O=C(Nc1ccc2c(c1)CNC2)c1n[nH]c2ncc(Br)cc12 | > 100 µM | > 99.5 µM |
| O=C(Nc1cc(Cl)cc(C(=O)NCCCc2nnn[nH]2)c1)OCc1ccccc1 | > 100 µM | > 99.5 µM |
| Clc1cc([C@@H]2C[C@H]2c2cccc(C3CCNCC3)c2)c2cn[nH]c2c1 | 9.27 µM and 13.3 µM | 7.93 µM and 6.82 µM and 6.33 µM |
| COC(=O)c1cc(Cl)cc([C@@H]2CN(Cc3ccccc3)C[C@H]2c2cccc(CN)c2)c1 | > 100 µM | > 99.5 µM |
| O=C(Nc1cc(Cl)cc([C@H](C#CCO)Nc2ccc(-c3nn[nH]n3)cc2)c1)OCc1ccccc1 | 8.13 µM and 6.72 µM | 12.2 µM |
| CC[C@H](Cc1nnn[nH]1)c1ccc(NC(=O)c2cc(Cl)cc(Cl)c2OC)cc1 | > 100 µM | > 99.5 µM |
| Cc1c(C(=O)Nc2cccc(CS(C)(=O)=O)c2)cc(C2CC2)n1C | > 100 µM | > 99.5 µM |
